Measured values as given in ChEMBL document CHEMBL1201862, “PubChem BioAssay data set” (2004).
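All cell lines were grown in 96-well plates and treated with compound for 48 hours. At the GI50, growth is halved.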 Calls of active or inactive are those of the source. Cut-off read from the data, not from the text of the source: active = GI50 up to about 1.1 µM and inactive = higher.

Legend:
Test in all cases: NCI tumour cell line growth inhibition, 48 h
786-0 = system: 786-0
A498 = system: A498
A549 = system: A549
ACHN = system: ACHN
CAKI-1 = system: CAKI-1
CCRF-CEM = system: CCRF-CEM
COLO 205 = system: COLO 205
DLD-1 = system: DLD-1
DMS-114 = system: DMS-114
DMS-273 = system: DMS-273
EKVX = system: EKVX
HCC 2998 = system: HCC 2998
HCT-116 = system: HCT-116
HCT-15 = system: HCT-15
HL-60 = system: HL-60
HOP-18 = system: HOP-18
HOP-62 = system: HOP-62
HOP-92 = system: HOP-92
HT-29 = system: HT-29
IGROV-1 = system: IGROV-1
K562 = system: K562
KM-20L2 = system: KM-20L2
KM12 = system: KM12
LXFL 529 = system: LXFL 529
M14 = system: M14
M19-MEL = system: M19-MEL
MOLT-4 = system: MOLT-4
Malme-3M = system: Malme-3M
NCI-H226 = system: NCI-H226
NCI-H23 = system: NCI-H23
NCI-H460 = system: NCI-H460
NCI-H522 = system: NCI-H522
OVCAR-3 = system: OVCAR-3
OVCAR-4 = system: OVCAR-4
OVCAR-5 = system: OVCAR-5
OVCAR-8 = system: OVCAR-8
RPMI-8226 = system: RPMI-8226
RXF 393 = system: RXF 393
RXF 631 = system: RXF 631
SF-268 = system: SF-268
SF-295 = system: SF-295
SF-539 = system: SF-539
SK-MEL-28 = system: SK-MEL-28
SK-MEL-2 = system: SK-MEL-2
SK-MEL-5 = system: SK-MEL-5
SK-OV-3 = system: SK-OV-3
SN12C = system: SN12C
SNB-19 = system: SNB-19
SNB-75 = system: SNB-75
SNB-78 = system: SNB-78
SR = system: SR
SW-620 = system: SW-620
U-251 = system: U-251
UACC-257 = system: UACC-257
UACC-62 = system: UACC-62
UO-31 = system: UO-31

Cc1ccccc1-n1c(=S)[nH]c2c(sc(=O)n2-c2ccccc2C)c1=O
GI50 (786-0): > 100 µM (inactive) | GI50 (A498): > 100 µM (inactive) | GI50 (A549): > 100 µM (inactive) | GI50 (ACHN): > 100 µM (inactive) | GI50 (CAKI-1): > 100 µM (inactive) | GI50 (CCRF-CEM): > 100 µM (inactive) | GI50 (COLO 205): > 100 µM (inactive) | GI50 (DLD-1): > 100 µM (inactive) | GI50 (DMS-114): > 100 µM (inactive) | GI50 (DMS-273): > 100 µM (inactive) | GI50 (EKVX): > 100 µM (inactive) | GI50 (HCC 2998): > 100 µM (inactive) | GI50 (HCT-116): > 100 µM (inactive) | GI50 (HCT-15): > 100 µM | GI50 (HL-60): > 100 µM (inactive) | GI50 (HOP-18): > 100 µM (inactive) | GI50 (HOP-62): > 100 µM (inactive) | GI50 (HOP-92): > 100 µM (inactive) | GI50 (HT-29): > 100 µM (inactive) | GI50 (IGROV-1): > 100 µM (inactive) | GI50 (K562): > 100 µM (inactive) | GI50 (KM-20L2): > 100 µM (inactive) | GI50 (KM12): > 100 µM (inactive) | GI50 (LXFL 529): > 100 µM (inactive) | GI50 (M14): > 100 µM (inactive) | GI50 (M19-MEL): > 100 µM (inactive) | GI50 (MOLT-4): > 100 µM (inactive) | GI50 (Malme-3M): > 100 µM (inactive) | GI50 (NCI-H226): > 100 µM (inactive) | GI50 (NCI-H23): > 100 µM (inactive) | GI50 (NCI-H460): > 100 µM (inactive) | GI50 (NCI-H522): > 100 µM (inactive) | GI50 (OVCAR-3): > 100 µM (inactive) | GI50 (OVCAR-4): > 100 µM (inactive) | GI50 (OVCAR-5): > 100 µM (inactive) | GI50 (OVCAR-8): > 100 µM (inactive) | GI50 (RPMI-8226): > 100 µM (inactive) | GI50 (RXF 393): > 100 µM (inactive) | GI50 (RXF 631): > 100 µM (inactive) | GI50 (SF-268): > 100 µM (inactive) | GI50 (SF-295): > 100 µM (inactive) | GI50 (SF-539): > 100 µM (inactive) | GI50 (SK-MEL-28): > 100 µM (inactive) | GI50 (SK-MEL-2): > 100 µM (inactive) | GI50 (SK-MEL-5): > 100 µM (inactive) | GI50 (SK-OV-3): > 100 µM (inactive) | GI50 (SN12C): > 100 µM (inactive) | GI50 (SNB-19): > 100 µM (inactive) | GI50 (SNB-75): > 100 µM (inactive) | GI50 (SNB-78): > 100 µM (inactive) | GI50 (SR): > 100 µM (inactive) | GI50 (SW-620): > 100 µM (inactive) | GI50 (U-251): > 100 µM (inactive) | GI50 (UACC-257): > 100 µM (inactive) | GI50 (UACC-62): > 100 µM (inactive) | GI50 (UO-31): > 100 µM (inactive)
